According to patent US20110263566A1 (priority 2008, published 2011):

Legend:
Assay in all cases: cells
HT-1197 cells = settings: Homo sapiens, HT1197, 72 h, read-out: IC50 (microM) (HT1197)
Procedure: (§1) To evaluate the expression status of PBK in several cell lines, western blot analysis was performed using crude cell lysate collected from those cells.
(§2) 100 micro-L of cell suspension was seeded onto 96-well microtiter plate (ViewPlate-96FTC, PerkinElmer). […] Cellular growth was determined using Cell Counting Kit-8 (DOJINDO) at 72 hours after the exposure of the candidate inhibitors. […] Accurate IC50 values were calculated as described previously.

BT-549 cells = settings: Homo sapiens, BT-549, 72 h, read-out: IC50 (microM) (BT549)
Procedure: as §1, §2

T47D cells = settings: Homo sapiens, 72 h, read-out: IC50 (microM) (T47D)
Procedure: as §1, §2

SMILES | IC50 (HT-1197 cells) | IC50 (BT-549 cells) | IC50 (T47D cells)
O=C(NCC1CCCNC1)c1ccc(O)c2[nH]c(C3CC3)nc12 (stereo not drawn) [Example 6, 2-Cyclopropyl-4-hydroxy-N-(piperidin-3-yl-methyl)-1H-benzo[d]imidazole-7-carboxamide] | > 100 µM | 30 µM | 55 µM
O=C(NCC1CCCCN1)c1ccc(O)c2[nH]c(C3CC3)nc12 (stereo not drawn) [Example 7, 2-Cyclopropyl-4-hydroxy-N-(piperidin-2-ylmethyl)-1H-benzo[d]imidazole-7-carboxamide] | > 100 µM | 9.5 µM | 11 µM
O=C(N[C@H]1CCCNC1)c1ccc(O)c2[nH]c(C3CC3)nc12 [Example 9, (S)-2-cyclopropyl-4-hydroxy-N-(piperidin-3-yl)-1H-benzo[d]imidazole-7-carboxamide] | 7.1 µM | 0.73 µM | 1.5 µM
O=C(NC1CCNCC1)c1ccc(O)c2[nH]c(C3CC3)nc12 [Example 10, 2-cyclopropyl-4-hydroxy-N-(piperidin-4-yl)-1H-benzo[d]imidazole-7-carboxamide] | > 100 µM | 20 µM | 19 µM
O=C(NC1CCCNC1)c1ccc(O)c2[nH]c(C3CC3)nc12 (stereo not drawn) [Example 11, 2-cyclopropyl-4-hydroxy-N-(piperidin-3-yl)-1H-benzo[d]imidazole-7-carboxamide] | 44 µM | 1.6 µM | 3.2 µM
O=C(NC1CCNC1)c1ccc(O)c2[nH]c(C3CC3)nc12 (stereo not drawn) [Example 12, 2-cyclopropyl-4-hydroxy-N-(pyrrolidin-3-yl)-1H-benzo[d]imidazole-7-carboxamide] | > 100 µM | 47 µM | 58 µM
O=C(NCC1CCCNC1)c1ccc(O)c2[nH]c(C3CCCC3)nc12 (stereo not drawn) [Example 15, 2-Cyclopentyl-4-hydroxy-N-(piperidin-3-ylmethyl)-1H-benzo[d]imidazole-7-carboxamide] | > 100 µM | 25 µM | 21 µM
O=C(N[C@H]1CCCNC1)c1ccc(O)c2[nH]c(C3CCCC3)nc12 [Example 16, (S)-2-Cyclopentyl-4-hydroxy-N-(piperidin-3-yl)-1H-benzo[d]imidazole-7-carboxamide] | 19 µM | 0.37 µM | 2.6 µM
O=C(NCC1CCCCN1)c1ccc(O)c2[nH]c(-c3ccccc3)nc12 (stereo not drawn) [Example 18, 4-Hydroxy-2-phenyl-N-(piperidin-2-ylmethyl)-1H-benzo[d]imidazole-7-carboxamide] | 98 µM | 31 µM | 15 µM
O=C(NC1CCCNC1)c1ccc(O)c2[nH]c(-c3cccs3)nc12 (stereo not drawn) [Example 35, 7-Hydroxy-N-(piperidin-3-yl)-2-(thiophen-2-yl)-1H-benzo[d]imidazole-4-carboxamide] | 49 µM | 0.77 µM | 0.81 µM
O=C(N[C@@H]1CCCNC1)c1ccc(O)c2[nH]c(-c3cccs3)nc12 [Example 37, (R)-7-Hydroxy-N-(piperidin-3-yl)-2-(thiophen-2-yl)-1H-benzo[d]imidazole-4-carboxamide] | > 100 µM | 20 µM | 11 µM
O=C(N[C@H]1CCCNC1)c1ccc(O)c2[nH]c(-c3cccs3)nc12 [Example 38, (S)-7-Hydroxy-N-(piperidin-3-yl)-2-(thiophen-2-yl)-1H-benzo[d]imidazole-4-carboxamide] | 33 µM | 0.46 µM | 0.36 µM
O=C(NCC1CCCNC1)c1ccc(O)c2[nH]c(-c3cccs3)nc12 (stereo not drawn) [Example 39, 7-Hydroxy-N-(piperidin-3-ylmethyl)-2-(thiophen-2-yl)-1H-benzo[d]imidazole-4-carboxamide] | > 100 µM | 15 µM | 8.6 µM
O=C(NC1CCNCC1)c1ccc(O)c2[nH]c(-c3cccs3)nc12 [Example 40, 7-Hydroxy-N-(piperidin-4-yl)-2-(thiophen-2-yl)-1H-benzo[d]imidazole-4-carboxamide] | > 100 µM | 73 µM | 13 µM
CN1CCCC(NC(=O)c2ccc(O)c3[nH]c(-c4cccs4)nc23)C1 (stereo not drawn) [Example 41, 7-Hydroxy-N-(1-methylpiperidin-3-yl)-2-(thiophen-2-yl)-1H-benzo[d]imidazole-4-carboxamide] | 24 µM | 8.1 µM | 9.8 µM
O=C(NC1CCNC1)c1ccc(O)c2[nH]c(-c3cccs3)nc12 (stereo not drawn) [Example 44, 7-Hydroxy-N-(pyrrolidin-3-yl)-2-(thiophen-2-yl)-1H-benzo[d]imidazole-4-carboxamide] | > 100 µM | 15 µM | 20 µM
O=C(NCC1CCCCN1)c1ccc(O)c2[nH]c(-c3cccs3)nc12 (stereo not drawn) [Example 45, 7-Hydroxy-N-(piperidin-2-ylmethyl)-2-(thiophen-2-yl)-1H-benzo[d]imidazole-4-carboxamide] | > 100 µM | 29 µM | 7.8 µM
N[C@H]1CC[C@H](NC(=O)c2ccc(O)c3[nH]c(-c4cccs4)nc23)CC1 [Example 47, N-(4-Aminocyclohexyl)-7-hydroxy-2-(thiophen-2-yl)-1H-benzo[d]imidazole-4-carboxamide] | 58 µM | 5.3 µM | 6.2 µM
O=C(NCC1CCCNC1)c1ccc(O)c2[nH]c(C3CC4CCC3C4)nc12 (stereo not drawn) [Example 48, 2-(Bicyclo[2.2.1]heptan-2-yl)-7-hydroxy-N-(piperidin-3-ylmethyl)-1H-benzo[d]imidazole-4-carboxamide] | ≥ 100 µM | 20 µM | 49 µM
O=C(NC1CCCNC1)c1ccc(O)c2[nH]c(C3CC4CCC3C4)nc12 (stereo not drawn) [Example 49, 2-(Bicyclo[2.2.1]heptan-2-yl)-7-hydroxy-N-(piperidin-3-yl)-1H-benzo[d]imidazole-4-carboxamide] | 14 µM | 0.65 µM | 4.1 µM
O=C(N[C@H]1CCCNC1)c1ccc(O)c2[nH]c(-c3ccc(Br)s3)nc12 [Example 51, (S)-2-(5-bromothiophen-2-yl)-7-hydroxy-N-(piperidin-3-yl)-1H-benzo[d]imidazole-4-carboxamide] | 5.7 µM | 0.18 µM | 0.14 µM
O=C(N[C@H]1CCCNC1)c1ccc(O)c2[nH]c(C3CC4CCC3C4)nc12 (stereo partly drawn) [Example 52, 2-(Bicyclo[2.2.1]heptan-2-yl)-7-hydroxy-N-((S)-piperidin-3-yl)-1H-benzo[d]imidazole-4-carboxamide] | 19 µM | 0.43 µM | 2.3 µM
NC12CC3CC(C1)CC(NC(=O)c1ccc(O)c4[nH]c(C5CC6CCC5C6)nc14)(C3)C2 (stereo not drawn) [Example 53] | 24 µM | 4.6 µM | 5.2 µM
NC12CC3CC(C1)CC(NC(=O)c1ccc(O)c4[nH]c(-c5cccs5)nc14)(C3)C2 [Example 54, 2-(Thiophene-2-yl)-7-hydroxy-N-(adamantate-3-ylamino)-1H-benzo[d]imidazole-4-carboxamide] | 10 µM | 3.3 µM | 1.6 µM
NC1CCCC(NC(=O)c2ccc(O)c3[nH]c(C4CC5CCC4C5)nc23)C1 (stereo not drawn) [Example 55, N-(3-Aminocyclohexyl)-2-(bicyclo[2.2.1]heptan-2-yl)-7-hydroxy-1H-benzo[d]imidazole-4-carboxamide] | 74 µM | 2.9 µM | 9.1 µM
N[C@H]1CC[C@@H](CNC(=O)c2ccc(O)c3[nH]c(C4CC5CCC4C5)nc23)CC1 (stereo partly drawn) [Example 56, N-{[(cis)-4-Aminocyclohexyl]methyl}-2-(bicyclo[2.2.1]heptan-2-yl)-7-hydroxy-1H-benzo[d]imidazole-4-carboxamide] | 61 µM | 10 µM | 30 µM
O=C(N[C@H]1CCCNC1)c1ccc(O)c2[nH]c(-c3ccc(N4CCNCC4)s3)nc12 [Example 57, (S)-7-hydroxy-2-(5-(piperazin-1-yl)thiophen-2-yl)-N-(piperidin-3-yl)-1H-benzo[d]imidazole-4-carboxamide] | 33 µM | 1.1 µM | 1.1 µM
O=C(NC[C@@H]1CCCNC1)c1ccc(O)c2[nH]c(Cc3cccs3)nc12 [Example 58, (R)-7-hydroxy-N-(piperidin-3-ylmethyl)-2-(thiophen-2-ylmethyl)-1H-benzo[d]imidazole-4-carboxamide] | 21 µM | 13 µM | 24 µM
O=C(N[C@H]1CCCNC1)c1ccc(O)c2[nH]c(Cc3cccs3)nc12 [Example 59, (S)-7-hydroxy-N-(piperidin-3-yl)-2-(thiophen-2-ylmethyl)-1H-benzo[d]imidazole-4-carboxamide] | 76 µM | 2.9 µM | 11 µM
O=C(NC[C@H]1CCCNC1)c1ccc(O)c2[nH]c(Cc3cccs3)nc12 [Example 60, (S)-7-hydroxy-N-(piperidin-3-ylmethyl)-2-(thiophen-2-ylmethyl)-1H-benzo[d]imidazole-4-carboxamide] | 33 µM | 49 µM | 42 µM
